Reference: patent US20170252442A1, “PHOTOHEXER COMPOUNDS AND PHARMACEUTICAL COMPOSITION AND USE THEREOF” (RAINBOW PHARMATECH LLC, priority 2014, published 2017)

What was measured:
Eca-109 cells = experiment: MTT assay, photodynamic therapy on Eca-109 cells; assay type: cell-based, human
Source text: (§1) The cells in logarithmic growth phase were collected and inoculated on 24-well culture plates. When reaching 70%-80% confluence, cells were divided randomly into the following groups: control (the parallel control group without photosensitizer and irradiation), irradiation (irradiation treatment alone without photosensitizer); (photosensitizer treatment alone without irradiation), photodynamic treatment (treatment by photosensitizer in combination with irradiation). For the photosensitizer alone treatment group and photodynamic treatment group, an appropriate amount of Photohexer-1 (P-1) or Photohexer-2 (P-2) was respectively added away from light to give a final concentration of 0.8, 1.6, 3.2, 6.4 μM. Each group set 3 replicates. Cells were incubated with the active agent, different treatments were carried out according to the grouping. […] After treatment and digestion of each group of cells, it was inoculated into a 96-well plate at 100 μL/well, and four wells were set for each treatment. MTT assay was performed after 24 h from inoculation: 20 μL MTT solution was added to each well under the condition away from light, and the culture was continued for 4 hours. 150 μL DMSO was added to each well after discarding the supernatant. After 15 min of dissolution, the absorbance value (OD value) was measured using a microplate reader and the relative survival rate of cells was calculated according to the following formula: […]

SGC7901 cells = experiment: MTT assay, photodynamic therapy on SGC7901 cells; assay type: cell-based, human
Source text: as §1

MDA-MB-231 cells = experiment: MTT assay, photodynamic therapy on MDA-MB-231 cells; assay type: cell-based, human
Source text: as §1

the cell lines = experiment: MTT assay, summary over the cell lines (photosensitizer alone); assay type: cell-based; conditions: without light irradiation; selected drug concentration range (0.8-6.4 μM)
Source text: The cells in logarithmic growth phase were collected and inoculated on 24-well culture plates. When reaching 70%-80% confluence, cells were divided randomly into the following groups: control (the parallel control group without photosensitizer and irradiation), irradiation (irradiation treatment alone without photosensitizer); (photosensitizer treatment alone without irradiation), photodynamic treatment (treatment by photosensitizer in combination with irradiation). For the photosensitizer alone treatment group and photodynamic treatment group, an appropriate amount of Photohexer-1 (P-1) or Photohexer-2 (P-2) was respectively added away from light to give a final concentration of 0.8, 1.6, 3.2, 6.4 μM. Each group set 3 replicates. Cells were incubated with the active agent, different treatments were carried out according to the grouping. Three different light intensities were selected for the photodynamic treatment group, which were 2.6, 5.2 and 12.4 J/cm^2, respectively. After treatment and digestion of each group of cells, it was inoculated into a 96-well plate at 100 μL/well, and four wells were set for each treatment. […] After 15 min of dissolution, the absorbance value (OD value) was measured using a microplate reader and the relative survival rate of cells was calculated according to the following formula: […]

MCF-7 cells = experiment: MTT assay, photodynamic therapy on MCF-7 cells; assay type: cell-based, human
Source text: as §1

[1] = 0.8 μM alone treatment, without irradiation
[2] = 0.8 μM combined with 2.6 J/cm^2 light irradiation
[3] = 0.8 μM combined with 5.2 J/cm^2 light irradiation
[4] = 0.8 μM combined with 10.4 J/cm^2 light irradiation
[5] = 1.6 μM alone treatment, without irradiation
[6] = 1.6 μM combined with 2.6 J/cm^2 light irradiation
[7] = 1.6 μM combined with 5.2 J/cm^2 light irradiation
[8] = 1.6 μM combined with 10.4 J/cm^2 light irradiation
[9] = 3.2 μM alone treatment, without irradiation
[10] = 3.2 μM combined with 2.6 J/cm^2 light irradiation
[11] = 3.2 μM combined with 5.2 J/cm^2 light irradiation
[12] = 3.2 μM combined with 10.4 J/cm^2 light irradiation
[13] = 6.4 μM alone treatment, without irradiation
[14] = 6.4 μM combined with 2.6 J/cm^2 light irradiation
[15] = 6.4 μM combined with 5.2 J/cm^2 light irradiation
[16] = 6.4 μM combined with 10.4 J/cm^2 light irradiation

## C=CC1=C(C)c2cc3[nH]c(cc4nc(cc5[nH]c(cc1n2)c(C)c5CCC(=O)[O-])C(CCC(=O)[O-])=C4C)c(C)c3C(C)OCCCCCC.[Na+].[Na+] (centres unmarked) [Photohexer P-1, 2-(1-hexyloxyethyl)-6,7-bis(propionatesodium)-1,3,5,8-tetramethyl-4-vinylporphyrin]
Eca-109 cells
  photosensitive toxicity compared between P-1 and P-2: significantly stronger toxicity than that of P-2
Eca-109 cells; [1]
  Cell survival rate: 99.32 ± 3.43%
Eca-109 cells; [2]
  Cell survival rate: 84.64 ± 3.79%
Eca-109 cells; [3]
  Cell survival rate: 74.34 ± 4.23%
Eca-109 cells; [4]
  Cell survival rate: 60.09 ± 4.54%
Eca-109 cells; [5]
  Cell survival rate: 97.28 ± 2.48%
Eca-109 cells; [6]
  Cell survival rate: 64.63 ± 2.39%
Eca-109 cells; [7]
  Cell survival rate: 66.40 ± 3.12%
Eca-109 cells; [8]
  Cell survival rate: 41.05 ± 3.47%
Eca-109 cells; [9]
  Cell survival rate: 92.81 ± 1.37%
Eca-109 cells; [10]
  Cell survival rate: 44.02 ± 2.05%
Eca-109 cells; [11]
  Cell survival rate: 41.43 ± 1.27%
Eca-109 cells; [12]
  Cell survival rate: 36.89 ± 2.26%
Eca-109 cells; [13]
  Cell survival rate: 80.68 ± 1.04%
Eca-109 cells; [14]
  Cell survival rate: 42.24 ± 1.01%
Eca-109 cells; [15]
  Cell survival rate: 37.97 ± 1.04%
Eca-109 cells; [16]
  Cell survival rate: 35.04 ± 1.34%
SGC7901 cells; [1]
  Cell survival rate: 100.39 ± 0.20%
SGC7901 cells; [2]
  Cell survival rate: 90.25 ± 2.16%
SGC7901 cells; [3]
  Cell survival rate: 92.41 ± 0.63%
SGC7901 cells; [4]
  Cell survival rate: 92.26 ± 1.16%
SGC7901 cells; [5]
  Cell survival rate: 99.22 ± 1.37%
SGC7901 cells; [6]
  Cell survival rate: 91.19 ± 2.89%
SGC7901 cells; [7]
  Cell survival rate: 92.29 ± 0.15%
SGC7901 cells; [8]
  Cell survival rate: 89.21 ± 0.24%
SGC7901 cells; [9]
  Cell survival rate: 95.80 ± 1.59%
SGC7901 cells; [10]
  Cell survival rate: 88.70 ± 1.24%
SGC7901 cells; [11]
  Cell survival rate: 85.49 ± 0.99%
SGC7901 cells; [12]
  Cell survival rate: 77.02 ± 0.04%
SGC7901 cells; [13]
  Cell survival rate: 89.77 ± 4.99%
SGC7901 cells; [14]
  Cell survival rate: 77.76 ± 0.22%
SGC7901 cells; [15]
  Cell survival rate: 69.94 ± 0.56%
SGC7901 cells; [16]
  Cell survival rate: 38.34 ± 0.13%
SGC7901 cells; drug-dose and light-intensity dependent
  killing effect of photodynamic therapy: obvious killing effect
MDA-MB-231 cells; [1]
  Cell survival rate: 97.82 ± 3.12%
MDA-MB-231 cells; [2]
  Cell survival rate: 93.29 ± 3.66%
MDA-MB-231 cells; [3]
  Cell survival rate: 90.67 ± 4.08%
MDA-MB-231 cells; [4]
  Cell survival rate: 88.23 ± 4.09%
MDA-MB-231 cells; [5]
  Cell survival rate: 91.07 ± 2.02%
MDA-MB-231 cells; [6]
  Cell survival rate: 81.63 ± 2.87%
MDA-MB-231 cells; [7]
  Cell survival rate: 76.33 ± 2.91%
MDA-MB-231 cells; [8]
  Cell survival rate: 71.13 ± 3.79%
MDA-MB-231 cells; [9]
  Cell survival rate: 75.52 ± 1.07%
MDA-MB-231 cells; [10]
  Cell survival rate: 70.24 ± 2.03%
MDA-MB-231 cells; [11]
  Cell survival rate: 68.08 ± 1.43%
MDA-MB-231 cells; [12]
  Cell survival rate: 61.29 ± 2.27%
MDA-MB-231 cells; [13]
  Cell survival rate: 70.10 ± 0.99%
MDA-MB-231 cells; [14]
  Cell survival rate: 62.22 ± 1.04%
MDA-MB-231 cells; [15]
  Cell survival rate: 64.88 ± 1.07%
MDA-MB-231 cells; [16]
  Cell survival rate: 56.27 ± 1.06%
The cell lines
  cytotoxicity of alone treatment: did not produce significant cytotoxicity
MCF-7 cells
  sensitivity compared between P-1 and P-2: more sensitive than P-2
MCF-7 cells; [1]
  Cell survival rate: 102.94 ± 3.04%
MCF-7 cells; [2]
  Cell survival rate: 78.02 ± 4.55%
MCF-7 cells; [3]
  Cell survival rate: 68.03 ± 3.97%
MCF-7 cells; [4]
  Cell survival rate: 63.99 ± 4.42%
MCF-7 cells; [5]
  Cell survival rate: 82.48 ± 2.24%
MCF-7 cells; [6]
  Cell survival rate: 65.32 ± 2.43%
MCF-7 cells; [7]
  Cell survival rate: 47.92 ± 2.82%
MCF-7 cells; [8]
  Cell survival rate: 49.71 ± 3.94%
MCF-7 cells; [9]
  Cell survival rate: 71.23 ± 1.76%
MCF-7 cells; [10]
  Cell survival rate: 54.13 ± 2.04%
MCF-7 cells; [11]
  Cell survival rate: 45.96 ± 1.76%
MCF-7 cells; [12]
  Cell survival rate: 46.98 ± 2.67%
MCF-7 cells; [13]
  Cell survival rate: 60.81 ± 1.04%
MCF-7 cells; [14]
  Cell survival rate: 50.88 ± 1.02%
MCF-7 cells; [15]
  Cell survival rate: 41.69 ± 1.02%
MCF-7 cells; [16]
  Cell survival rate: 44.28 ± 1.07%
